In US12076363B2, “Peptide epoxyketone proteasome inhibitors in combination with PIM kinase inhibitors for treatment of cancers” (ONYX PHARMACEUTICALS, INC., priority 2013, dated 2024):

Tests used:
[1] = tested on: PIM-2; test: PIM-2 ubiquitination (K-ε-GG ubiquitin remnant profiling) after proteasome inhibitor treatment, U266 cells; assay type: cell-based; settings: PIM-2 lysine 61; U266 (4 hr); 125 nM; vs DMSO control
Procedure: (§1) Multiple myeloma cells were used to identify pro-survival proteins that were stabilized upon carfilzomib exposure by monitoring an increase in ubiquitination at specific sites associated with degradation. Two multiple myeloma cell lines, U266 and NCI-H929, were treated for 1 and 4 hours at 125 nM concentration of carfilzomib and bortezomib. DMSO treated cells were used as a control. The concentrations of active agents used were set at the IC80 of chymotrypsin activity inhibition and 48 hr cytotoxicity. The subunit inhibition profile obtained for these concentrations in vitro mimicked the subunit inhibition profile for carfilzomib in patients treated with a dose of 27 mg/m^2. Washed cell pellets were processed and profiled for ubiquitin modified proteins using a specific di-glycine antibody (PTMScan® Ubiquitin Remnant Motif (K-ε-GG) Kit #5562) that recognizes all lysine ubiquitin linkages on ubiquitin ligase substrates. All lysines on a protein that are modified with ubiquitin can be identified by this approach, and the lysines distal from the phosphorylation sites can then be associated with degradation. […] The increase in ubiquitin was also time dependent in NCI-H929 (Table 1).

[2] = tested on: PIM-2; test: PIM-2 ubiquitination (K-ε-GG ubiquitin remnant profiling) after proteasome inhibitor treatment, NCI-H929 cells; assay type: cell-based; settings: PIM-2 lysine 61, 125 nM, vs DMSO control
Procedure: as §1

SMILES: CC(C)C[C@H](NC(=O)[C@H](Cc1ccccc1)NC(=O)c1cnccn1)B(O)O [BTZ, bortezomib]
- Ubiquitin fold increases [1]: 31.5 fold
- Ubiquitin fold increases ([2]; H929 (1 hr)): 11 fold
- Ubiquitin fold increases ([2]; H929 (4 hr)): 21.4 fold

SMILES: CC(C)C[C@H](NC(=O)[C@H](CCc1ccccc1)NC(=O)CN1CCOCC1)C(=O)N[C@@H](Cc1ccccc1)C(=O)N[C@@H](CC(C)C)C(=O)[C@@]1(C)CO1 [CFZ, carfilzomib]
- Ubiquitin fold increases [1]: 34.6 fold
- Ubiquitin fold increases ([2]; H929 (1 hr)): 10.7 fold
- Ubiquitin fold increases ([2]; H929 (4 hr)): 24.9 fold
